Results: patent publication US12292380B2, “Integrated microfluidic device for capture and spectroscopic characterization of live cells under various treatment conditions” (CORNELL UNIVERSITY, priority 2018, dated 2025)

Tests used:
[1] = tested on: A431 cells; experiment: MEIRS measurement of the response of A431 cells to epidermal growth factor, PCA of reflectance spectra; type: cell-based; conditions: 40 nM EGF injected at t=240 min, time resolution 1 min
Procedure: (§1) The following method is used for monitoring a drug's effect of the cells. The method can be implemented using the same or similar detection unit 100, detection device 300, and detection system 10, as described above and shown in FIGS. 1 and 2-12. First, the metasurface 102 is assembled with the microfluidic chamber 302, and the cells are seeded on the metasurface 102 in culture media. The cells are then incubated until they are well-adhered on the metasurface 102. The metasurface 102 (with cells) is then transferred to a FTIR microscope 20 for continuous collection of IR spectra. […]
Referring briefly to FIG. 25, there are shown graphs of the resulting PCA scores/loadings obtained from A431 cells with the addition of epidermal growth factor (EGF). […] Specifically, 40 nM EGF was injected to the microfluidic measurement chamber 302 at t=240 min., while continuously monitored with time resolution of Δt=1 min. The measured reflectance spectra were analyzed using PCA. […] Although the biological interpretation of such signal is still not clear, it is hypothesized that the measured response corresponds to at least two processes in the cell, likely related to the cells' cytoskeletal reorganization in response of EGF.

[2] = tested on: A431 cells; experiment: MEIRS monitoring of trypsinization (detachment of adherent cells from the metasurface), PCA of reflection spectra; type: cell-based; conditions: 0.025% trypsin at t=66 min, between t=66 min and t=100 min, time resolution 1 min
Procedure: as §1, with “spectra. Background spectra of the cells are collected for some time, before the drug to be tested is introduced to the cells via a microfluidic pump (such as a syringe pump 20 like that shown in FIG. 12).” for “spectra.”
Referring briefly to FIG. 24, there are shown contrast microscopy images of A431 cells on the metasurface 102 and graphs of the resulting PCA scores/loadings obtained from their spectra. The most robust adhesion-related effects, such as trypsinization (i.e., the detachment of adherent cells from the metasurface 102 by application of trypsin, a proteolytic enzyme that breaks down adhesion proteins), can be easily detected using MEIRS. […] Reflection spectra were analyzed using principal components analysis (PCA). […]

Substance	PC1 score response to EGF [1]	time for PC2 score to recover to the baseline level before the EGF injection [1]	time evolution of the PC1 score (cell detachment from the metasurface) [2]
epidermal growth factor (NSDSECPLSHDGYCLHDGVCMYIEALDKYACNCVVGYIGERCQYRDLKWWELR; Epidermal growth factor; UniProt P01133 971-1023, looked up) [EGF, epidermal growth factor (EGF)]	permanent change to the cell	about 200 min	
trypsin			rapid detachment of the cells
